Measurements reported in patent US20090035876A1, “Electrochemical Assay” (Inverness Medical Switzerland GMBH, priority 2005, published 2009).

What was measured:
[1] = biological target: human serum albumin (HSA) (Homo sapiens, UniProt P02768); details: probe 25 μM, HSA 500 μM, cyclic voltammetry
Description: Cyclic voltammetry was used to measure the concentration of the ferrocene labelled fatty acid probe with and without the presence of HSA allowing percentage bound to be calculated.

[2] = Photolysis of the UV-cleavable ferrocene molecule in solution, followed by TLC; format: physicochemical; details: UV 365 nm, methanolic/PBS solution, 2.18 mM
Protocol: The cleavage study was followed by Thin Layer Chromatography (TLC) after irradiation for a definite time of a methanolic/PBS solution of the UV-cleavable ferrocene 9 (FIG. 3). • After 2 minutes of irradiation, the appearance of two new products was observed; One of them corresponding to the ferrocene product 8 (on the base line), the other one corresponding probably to the nitroso-derivative 10 just under the front line). • Under the irradiation conditions used, the Uv-cleavable ferrocene molecule was completely cleaved in less than 6 minutes.
To a solution of UV-cleavable ferrocene 9 (0.7 mg, 1.09*10^−6 mol) dissolved in 250 μl of methanol was added 250 μl of PBS. 30 μl of this solution was irradiated using a UV model B100A with a wavelength of 365 nm and an intensity of 8,900 μW/cm^2 at 10″. The UV was applied at approximately 15 cm from the solution.
The cleavage was followed by TLC every two minutes. Eluent used: Ethyl acetate/hexane (80/20) and DCM/MeOH/Et3N (85/10/5).

Chain of human serum albumin (HSA) (P02768 25-609): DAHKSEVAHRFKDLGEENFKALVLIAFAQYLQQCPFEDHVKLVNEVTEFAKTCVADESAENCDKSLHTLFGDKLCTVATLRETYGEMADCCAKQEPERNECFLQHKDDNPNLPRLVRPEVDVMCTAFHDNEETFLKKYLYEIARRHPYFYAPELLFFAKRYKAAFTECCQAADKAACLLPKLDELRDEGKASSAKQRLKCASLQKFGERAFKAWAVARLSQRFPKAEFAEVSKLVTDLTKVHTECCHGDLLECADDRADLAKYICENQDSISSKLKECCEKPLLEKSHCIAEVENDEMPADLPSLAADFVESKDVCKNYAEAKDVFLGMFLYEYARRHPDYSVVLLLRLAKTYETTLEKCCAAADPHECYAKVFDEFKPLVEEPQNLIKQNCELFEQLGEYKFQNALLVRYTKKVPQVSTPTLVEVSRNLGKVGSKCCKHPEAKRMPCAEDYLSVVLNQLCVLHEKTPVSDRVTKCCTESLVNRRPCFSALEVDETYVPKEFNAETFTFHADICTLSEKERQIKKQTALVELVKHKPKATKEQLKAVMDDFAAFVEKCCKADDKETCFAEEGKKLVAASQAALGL

Compound	percentage bound to HSA [1] [%]	irradiation time until completely cleaved [2]
OC[c-]1cccc1.[Fe+2].c1cc[cH-]c1 [ferrocene methanol]	50	
Thioacetic acid S—[3-(1-{2-[2-(2-ferrocenoylamino-ethoxy)-ethoxy]-ethylcarbamoyloxy}-ethyl)-4-nitro-benzyl]ester [UV-cleavable ferrocene molecule 9]		less than 6 minutes
